Assay results as given in paper PMC11650737, “Developing MYC Degraders Bearing the Von Hippel–Lindau Ligand to Target the “Undruggable” MYC” (ACS Pharmacology & Translational Science, 2024).
Where “and” joins values, the source holds several entries; their conditions need not be identical. Equal entries are not always repeated. Entries after “also recorded” stand apart in the source; their conditions may differ. Where two headings read alike, the source gives them in different places. One block for each molecule: values may come before it.

What was measured:
A549 cells = assay: Cell viability (MTT) assay, A549; assay type: cell-based, human; conditions: 72 h
Procedure: (§1) The antiproliferative activity of the synthesized compounds was tested in cell viability assays optimally set up for various cancer cell lines (results are depicted in Table 2, n = 3, average IC50 (μM) ± SD).
Cells were plated at a density of 5 × 10^3 cells per well on 96-well plates. After 24 h of incubation (37 °C, 5% CO2), the cell medium was removed, and compounds were added at selected concentrations (0.1–100 μM), followed by incubation for 72 h. Control cells were treated with 0.4% DMSO medium to match the conditions in the wells where drugs were added. After 72 h, the medium was removed, and the 3-(4,5-dimethylthiazol-2-yl)-2,5-diphenyltetrazolium bromide (MTT) solution (0.3 mg/mL in PBS) was added to cells for 3 h under no light conditions. The MTT solution was removed, and the formazan crystals were dissolved in 100 μL of DMSO. The optical density was measured at 570 nm with a reference wavelength of 690 nm using an absorbance microplate reader (SpectraMax 190, Molecular Devices, Sunnyvale, CA, USA). The half-maximal inhibitory concentration (IC50) was calculated based on a four-parameter logistic equation, generating a cell viability curve, using GraphPad Prism 6.01 (GraphPad Software, Inc.). […] The resulting absorbance values were used instead of IC50 calculation. […]

SKBR3 cells [1] = assay: Cell uptake / intracellular concentration by LC-MS/MS, SKBR3; assay type: in vitro ADME, human; conditions: SKBR3, 24 h incubation with 10 μM
Procedure: (§2) Therefore, in order to better comprehend the observed activities of our degraders, following incubation of each compound with cells, the intracellular concentrations of the synthesized derivatives were evaluated in different cancer cell lines, as described previously.[28],[29] SKBR3, PC3, or A549 cells were incubated with PROTACs (at a 10 μΜ concentration) for selected time points, respectively. Upon sample treatment, compounds were extracted and analyzed by LC-MS/MS. Table 1 presents the percentage of the molecule that enters the cells after 24 h incubation at the 10 μM concentration. […] The small molecule MYCi361, used as a binding domain component of MYC, was also evaluated in the cell uptake assay (Table 1).
(§3) Cells were plated in 24-well plates at a density of 2 × 10^5 cells/well. 24 h after seeding, cells were incubated with each PROTAC (10 μΜ) for certain time points (1 h, 4 h, 8 h, and 24 h). The incubations were terminated at the selected time points by removing the medium and washing the cells twice with 1 mL cold PBS (1×) in each well in order to remove unbound PROTAC. Subsequently, the cells were lysed by adding a cold solution of ACN:H2O (3:2) and scraping off the cell monolayer. This process was done in two steps: first, 200 μL of ACN:H2O was added, the cells were scraped, and the cell lysate was collected. The second step involved the addition of an extra 100 μL of ACN:H2O, scraping, and collection of the remaining lysate. Samples were subsequently vortexed, sonicated, and centrifuged for 10 min at 13 000 rpm. The supernatants were collected, evaporated for 1 h at 55 °C, and stored at −20 °C until the day of analysis. Samples were then reconstituted in 200 μL of initial mobile phase (100% A), and the intracellular accumulation of PROTACs was determined by LC-MS/MS analysis using Warfarin as a stable internal standard and PROTAC standards for the construction of analytical standard curves.
(§4) The percentage of cell uptake was calculated as follows: [drawing 1]

PC3 cells [2] = assay: Cell viability (MTT) assay, PC3; assay type: cell-based, human; conditions: for IC50: read-out: IC50 (antiproliferative effect)
Procedure: as §1
(§5) Cells were plated at a density of 5 × 10^3 cells per well on 96-well plates. After 24 h of incubation (37 °C, 5% CO2), the cell medium was removed, and compounds were added at selected concentrations (0.1–100 μM), followed by incubation for 72 h. Control cells were treated with 0.4% DMSO medium to match the conditions in the wells where drugs were added. After 72 h, the medium was removed, and the 3-(4,5-dimethylthiazol-2-yl)-2,5-diphenyltetrazolium bromide (MTT) solution (0.3 mg/mL in PBS) was added to cells for 3 h under no light conditions. The MTT solution was removed, and the formazan crystals were dissolved in 100 μL of DMSO. The optical density was measured at 570 nm with a reference wavelength of 690 nm using an absorbance microplate reader (SpectraMax 190, Molecular Devices, Sunnyvale, CA, USA). The half-maximal inhibitory concentration (IC50) was calculated based on a four-parameter logistic equation, generating a cell viability curve, using GraphPad Prism 6.01 (GraphPad Software, Inc.). Two concentrations of an established drug, Docetaxel (100 nM and 1 nM), were used in each experiment as a positive control. The resulting absorbance values were used instead of IC50 calculation. Each point was the result of three independent experiments performed in triplicate.

c-MYC = molecular target: T1, c-MYC (Homo sapiens, UniProt P01106); assay: MYC degradation in PC3 cells, Western blot; assay type: cell-based; conditions: for MYC degradation (MYC levels by Western blot): 10 μΜ, 24 h
T1 construct: endogenous in cells; host or cells: PC3
Procedure: The ability of novel compounds to induce MYC degradation in the PC3 cell line was evaluated via a Western blot-based assay. […] A PROTAC that effectively degrades bromodomain and extra-terminal (BET) family proteins, with indirect action on MYC levels, BETd-260, was also included in these experiments as a positive control. BETd-260 was tested at a lower concentration (1 μΜ) due to its high potency.[26]
PC3 cells were used for the determination of MYC levels after treatment with the PROTACs under study. Cells (at a density of 250 000 per well) were seeded in 6-well plates for 24 h until 60% confluence. During the 24-h incubation period, cells were treated with the tested compounds (10 μΜ) and BETd-260 (1 μΜ) that was used as a positive control. For rescue experiments, cells were pretreated with the inhibitor MG-132 for 2 h, and then, the medium was removed, followed by the addition of the selected compound. After the 24-h incubation period, a cell lysis protocol was performed. The medium was removed, and the cells were rinsed with cold PBS. Lysis was induced using RIPA lysis buffer (50 mM Tris-HCl at pH 7.5, 150 mM NaCl, 5 mM Na2EDTA, 1 mM EGTA, 0.1% SDS, 1% NP-40, 0.5% sodium deoxycholate, 8 mM sodium fluoride, and 1 mM sodium orthovanadate) and protease inhibitor cocktail (Roche, UK). Total protein concentration in lysate samples was determined via performance of the Bradford assay in bovine serum albumin (BSA). Standard and unknown samples were preformulated in Coomassie blue G-250 assay reagent (Thermo Fisher Scientific, MA, USA), followed by a readout at 595 nm. Separation of the protein isolated from PC3 lysates, respectively (10 μg), with NuPAGE sample reducing agent and NuPAGE LDS sample buffer (Invitrogen, UK), was achieved via SDS-PAGE electrophoresis at 110 V for 2 h, prior to overnight transfer to the polyvinylidene difluoride (PVDF) membrane. The membranes were then blocked in 5% nonfat dry milk in Tris-buffered saline with 0.1% Tween-20 (TBST-T) for 1 h at room temperature.
Detection of MYC in PC3 cells was accomplished via immunoblot of the POI with the indicated monoclonal antibody (Cell Signaling Technology, MA, USA, catalog number #5605) at 1:1000 in TBST at […] overnight. The secondary anti-rabbit peroxidase-conjugate antibody (Cell Signaling Technology, MA, USA, catalog number #7074) was further added at 1:2000 dilution, followed by 1-h incubation at room temperature. Chemiluminescent visualization of the MYC protein bands was performed after the addition of Immobilon Crescendo Western HRP substrate (Sigma-Aldrich, Munich, Germany). For normalization of MYC concentration, GAPDH was labeled using the specific rabbit monoclonal antibody (Cell Signaling Technology, MA, USA, catalog number #5174) at 1:20000 in 5% nonfat dry milk. Protein bands were quantified with the ImageJ software.

MYC:MAX complex = assay: In vitro MYC-MAX binding assay (GST pull-down); assay type: biochemical; conditions: compound 150 μM
Procedure: To assess whether the new degraders affect direct interaction of MYC with MAX, we employed a pull-down approach using recombinant proteins that correspond to the bHLHZ regions of MYC and MAX. GST-MYC, bound to glutathione sepharose beads, was incubated with the pyrazole compounds, followed by incubation with His-MAX. Finally, the complex of GST-MYC/HisMAX was eluted by the addition of excess glutathione, while the amount of the eluted complex was assessed by western blotting using anti-MAX antibodies (Figure 5).
Figure 5 Inhibition of the formation of the MYC:MAX complex by the pyrazole compounds. The indicated compounds (150 μM), or the solvent alone (DMSO, used as a control), were incubated with GST-MYC containing glutathione beads for 10 min at […], followed by incubation with His-MAX. […] The complex of GST-MYC:His-MAX was eluted by incubation of the beads with free glutathione. The amount of the eluted complex was analyzed by western blotting (presented in the inset), using anti-MAX antibodies, while the protein bands were quantified with the ImageJ software. The intensity of the bands is presented in the bar graph. […] Statistics were based on the unpaired two-tailed student’s t-test. Data are shown as mean ± SEM.
MYC–MAX complex formation assays were performed using recombinantly produced GST-MYC and His-MAX proteins, following the glutathione GST pull-down principle (Lentzaris et al., in preparation). In this assay, recombinant GST-MYC bound to glutathione beads was preincubated with the indicated compound or vehicle […]. As a negative control, empty beads, i.e., not loaded with GST-MYC, were used. The formed complex was eluted with glutathione, while the amount of bound MAX (indicating the amount of the generated complex) was assessed by Western blotting using anti-MAX antibodies (Abcam) and quantified based on the image J free software. All assays were carried out at least three independent times.

SKBR3 cells [3] = assay: Cell viability (MTT) assay, SKBR3; assay type: cell-based, human
Procedure: as §1, §5

PSN1 cells = tested on: PSN1 cells; parameters: method as in PMID 34838332; conditions: PSN1 cells ref 13; read-out: GI50 (viability); cited from earlier work
HCT116 cells = tested on: HCT116 cells; parameters: method as in PMID 34838332; conditions: HCT116 cells ref 13; read-out: GI50 (viability); cited from earlier work
PC3 cells [4] = assay: Cell uptake / intracellular concentration by LC-MS/MS, PC3; assay type: in vitro ADME, human; conditions: PC3, 24 h incubation with 10 μM
Procedure: as §2, §3, §4

T1 sequence (P01106 whole entry): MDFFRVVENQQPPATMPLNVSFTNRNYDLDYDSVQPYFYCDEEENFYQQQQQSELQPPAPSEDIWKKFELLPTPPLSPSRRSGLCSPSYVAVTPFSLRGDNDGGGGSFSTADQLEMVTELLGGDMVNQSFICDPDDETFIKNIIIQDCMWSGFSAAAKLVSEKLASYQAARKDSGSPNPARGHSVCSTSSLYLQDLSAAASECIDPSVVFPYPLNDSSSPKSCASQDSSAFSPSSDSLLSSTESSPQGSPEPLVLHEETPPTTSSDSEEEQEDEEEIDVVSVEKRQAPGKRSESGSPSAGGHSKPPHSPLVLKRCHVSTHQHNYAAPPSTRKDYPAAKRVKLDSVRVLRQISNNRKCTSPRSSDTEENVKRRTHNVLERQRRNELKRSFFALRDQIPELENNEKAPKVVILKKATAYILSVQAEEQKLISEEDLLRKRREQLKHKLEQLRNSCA

SMILES: Cn1nc(C(F)(F)F)cc1-c1ccc(OCCCN)c(-c2cc(C(F)(F)F)cc(C(F)(F)F)c2)c1O.O=C(O)C(F)(F)F [CSI118]
inhibition of MYC:MAX complex formation (binding of His-MAX to GST-MYC) (MYC:MAX complex): did not seem to interfere significantly; also recorded: no effect on MYC/MAX dimerization

SMILES: CC(C)c1ccc(/C=C2\SC(=O)N(CCCCCCCCNC(=O)c3ccc4c(c3)C(=O)N(C3CCC(=O)NC3=O)C4=O)C2=O)cc1 (stereo not shown) [MDEG-541]
GI50 (PSN1 cells): 10.7 µM | GI50 (HCT116 cells): 14.3 µM

Continued, in another order:

IC50 (antiproliferative effect) (A549 cells): inactive | Uptake by cells (SKBR3 cells [1]): 16 ± 5% | IC50 (antiproliferative effect) (PC3 cells [2]; 72 h): inactive | MYC degradation (MYC levels by Western blot) (c-MYC): No particular effect
SMILES: Cc1ncsc1-c1ccc(CNC(=O)[C@@H]2C[C@@H](O)CN2C(=O)[C@@H](NC(=O)CNC(=O)CCC(=O)NCCCOc2ccc(-c3cc(C(F)(F)F)nn3C)c(O)c2-c2cc(C(F)(F)F)cc(C(F)(F)F)c2)C(C)(C)C)cc1 [CSI95]

MYC degradation (MYC levels by Western blot) (c-MYC): inactive
SMILES: Cc1ncsc1-c1ccc(CNC(=O)[C@@H]2C[C@H](O)CN2C(=O)[C@@H](NC(=O)CCCC(=O)NCCCOc2ccc(-c3cc(C(F)(F)F)nn3C)c(O)c2-c2cc(C(F)(F)F)cc(C(F)(F)F)c2)C(C)(C)C)cc1 [CSI212]
IC50 (antiproliferative effect) (PC3 cells [2]; 72 h): did not have any antiproliferative effect; also recorded: inactive | IC50 (antiproliferative effect) (SKBR3 cells [3]; 72 h): did not have any antiproliferative effect; also recorded: inactive

IC50 (PC3 cells [2]; 72 h): 23 µM and 25 µM
SMILES: CCc1ccc(/C=C2/SC(=S)NC2=O)cc1 [Compound 10058-F4, reference compound]

Uptake by cells (PC3 cells [4]): 28% and 28 ± 5% | Uptake by cells (SKBR3 cells [1]): 19% and 19 ± 1% | IC50 (PC3 cells [2]; Homo sapiens, PC-3, 72 h): 8 ± 1 µM | concentration range in which MYC was degraded (c-MYC): 5–10 μΜ | IC50 (SKBR3 cells [3]; Homo sapiens, SK-BR-3, 72 h, read-out: IC50 (antiproliferative effect)): 11 ± 4 µM
SMILES: Cn1nc(C(F)(F)F)cc1-c1ccc(OCc2ccc(Cl)cc2)c(-c2cc(C(F)(F)F)cc(C(F)(F)F)c2)c1O [MYCi361, reference compound]
